This passage reports IC50 results from patent US8613914B2, “Peptidomimetic sulfamide compounds and antiviral uses thereof” (Novartis AG, priority 2009, dated 2013).

The term IC50 denotes the midpoint of a concentration-inhibition curve.

Sequence of HCV NS3-4A serine protease (full-length NS3-4A protein) (P26664 1027-1657): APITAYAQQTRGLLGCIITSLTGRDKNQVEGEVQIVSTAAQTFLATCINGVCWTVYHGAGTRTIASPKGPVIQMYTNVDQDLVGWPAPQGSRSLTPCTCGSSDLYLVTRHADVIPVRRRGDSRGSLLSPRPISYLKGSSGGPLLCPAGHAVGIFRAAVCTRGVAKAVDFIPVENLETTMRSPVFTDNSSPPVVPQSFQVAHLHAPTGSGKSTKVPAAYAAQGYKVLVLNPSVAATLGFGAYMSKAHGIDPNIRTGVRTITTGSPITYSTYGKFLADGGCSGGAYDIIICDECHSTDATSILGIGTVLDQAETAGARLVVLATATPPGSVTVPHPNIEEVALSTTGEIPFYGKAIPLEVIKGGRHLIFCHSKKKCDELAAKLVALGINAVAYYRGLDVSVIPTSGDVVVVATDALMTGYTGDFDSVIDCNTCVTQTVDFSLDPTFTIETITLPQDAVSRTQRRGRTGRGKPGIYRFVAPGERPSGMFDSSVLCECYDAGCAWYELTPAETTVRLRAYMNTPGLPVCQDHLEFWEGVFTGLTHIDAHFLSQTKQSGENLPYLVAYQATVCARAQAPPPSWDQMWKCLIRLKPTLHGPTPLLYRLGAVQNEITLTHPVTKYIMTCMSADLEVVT
Sequence of HCV NS3-4A serine protease (full-length NS3-4A protein) (P26664 1658-1711 partner): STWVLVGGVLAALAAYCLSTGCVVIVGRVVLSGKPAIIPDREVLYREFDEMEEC

The target of this assay is HCV NS3-4A serine protease (full-length NS3-4A protein) (Hepatitis C virus genotype 1a (isolate 1) (HCV), UniProt P26664). Kind of assay: HCV NS3-4A protease assay. The conditions noted are these: strain HCV-1, fluorogenic peptide substrate, read-out: Protease assay Ex. 12 IC50. It counts as biochemical, HCV genotype 1a. The method, then:
The inhibitory activity of certain compounds of Table A against HCV NS3-4A serine protease is determined in a homogenous assay using the full-length NS3-4A protein (genotype 1a, strain HCV-1) and a commercially available internally-quenched fluorogenic peptide substrate as described by Taliani, M., et al. 1996 Anal. Biochem. 240:60-67, which is incorporated by reference in its entirety.
Take `C=C[C@@H]1C[C@]1(NC(=O)[C@@H]1C[C@@]2(CN1C(=O)[C@@H](NC(=O)[C@@H](NC(=O)OC(C)(C)C)C(C)(C)C)C(C)(C)C)C(C)(C)C21CCC1)C(=O)NS(=O)(=O)N1CCCC1` [Compound 2, tert-butyl [(1S)-1-{[(1S)-1-{[(5R,8S)-10,10-dimethyl-8-({(1R,2S)-1-[(pyrrolidin-1-ylsulfonyl)carbamoyl]-2-vinylcyclopropyl}carbamoyl)-7-azadispiro[3.0.4.1]dec-7-yl]carbonyl}-2,2-dimethylpropyl]carbamoyl}-2,2-dimethylpropyl]carbamate]: the IC50 is 750 nM.
For `C=C[C@@H]1C[C@]1(NC(=O)[C@@H]1C[C@@]2(CN1C(=O)[C@@H](NC(=O)[C@@H](NC(=O)c1ccccc1NC)C1CCCCC1)C(C)(C)C)C(C)(C)C21CCC1)C(=O)NS(=O)(=O)N1CCCC1` [Compound 182, (5R,8S)-7-{(2S)-2-[(cyclohexyl{[2-(methylamino)benzoyl]amino}acetyl)amino]-3,3-dimethylbutanoyl}-10,10-dimethyl-N-{(1R,2S)-1-[(pyrrolidin-1-ylsulfonyl)carbamoyl]-2-vinylcyclopropyl}-7-azadispiro[3.0.4.1]decane-8-carboxamide], the IC50 amounted to 70 nM.
For the compound `C=C[C@@H]1C[C@]1(NC(=O)[C@@H]1C[C@@]2(CN1C(=O)[C@@H](NC(=O)[C@@H](NC(=O)[C@@H]1CCCN1CC)C1(C)CCCCC1)C1(C)CCOCC1)C(C)(C)C21CCC1)C(=O)NS(=O)(=O)N1CCCC1` [Compound 146, (5R,8S)-7-[(2S)-2-{[(2S)-2-({[(2S)-1-ethylpyrrolidin-2-yl]carbonyl}amino)-2-(1-methylcyclohexyl)acetyl]amino}-2-(4-methyltetrahydro-2H-pyran-4-yl)acetyl]-10,10-dimethyl-N-{(1R,2S)-1-[(pyrrolidin-1-ylsulfonyl)carbamoyl]-2-vinylcyclopropyl}-7-azadispiro[3.0.4.1]decane-8-carboxamide], the IC50 amounted to 3 nM.
Take `C=C[C@@H]1C[C@]1(NC(=O)[C@@H]1C[C@@]2(CN1C(=O)[C@@H](NC(=O)[C@@H](NC(=O)[C@H]1CCCCN1C(C)C)C1CCCCC1)C(C)(C)C)C(C)(C)C21CCC1)C(=O)NS(=O)(=O)N(CC)C(C)C` [Compound 120, (5R,8S)-7-[(2S)-2-{[(2S)-2-cyclohexyl-2-({[(2R)-1-isopropylpiperidin-2-yl]carbonyl}amino)acetyl]amino}-3,3-dimethylbutanoyl]-N-[(1R,2S)-1-({[ethyl(isopropyl)amino]sulfonyl}carbamoyl)-2-vinylcyclopropyl]-10,10-dimethyl-7-azadispiro[3.0.4.1]decane-8-carboxamide]: the IC50 amounted to 10 nM.
Next, `C=C[C@@H]1C[C@]1(NC(=O)[C@@H]1C[C@@]2(CN1C(=O)[C@@H](NC(=O)[C@@H](NC(=O)[C@@H]1CCCCN1CC)C1CCCCC1)C1CCOCC1)C(C)(C)C21CCC1)C(=O)NS(=O)(=O)N(CC)CC` [Compound 85, (5R,8S)-7-[(2S)-2-{[(2S)-2-cyclohexyl-2-({[(2S)-1-ethylpiperidin-2-yl]carbonyl}amino)acetyl]amino}-2-(tetrahydro-2H-pyran-4-yl)acetyl]-N-[(1R,2S)-1-{[(diethylamino)sulfonyl]carbamoyl}-2-vinylcyclopropyl]-10,10-dimethyl-7-azadispiro[3.0.4.1]decane-8-carboxamide]: 4.5 nM; `C=C[C@@H]1C[C@]1(NC(=O)[C@@H]1C[C@@]2(CN1C(=O)[C@@H](NC(=O)[C@@H](NC(=O)[C@@H]1CCCN1CC)C1CCCC1)C(C)(C)C)C(C)(C)C21CCC1)C(=O)NS(=O)(=O)N(CC)CC` [Compound 97, (5R,8S)-7-[(2S)-2-{[(2S)-2-cyclopentyl-2-({[(2S)-1-ethylpyrrolidin-2-yl]carbonyl}amino)acetyl]amino}-3,3-dimethylbutanoyl]-N-[(1R,2S)-1-{[(diethylamino)sulfonyl]carbamoyl}-2-vinylcyclopropyl]-10,10-dimethyl-7-azadispiro[3.0.4.1]decane-8-carboxamide]: 10 nM; `C=C[C@@H]1C[C@]1(NC(=O)[C@@H]1C[C@@]2(CN1C(=O)[C@@H](NC(=O)[C@@H](NC(=O)[C@@H]1CCCCN1CCF)C(C)(C)C)C(C)(C)C)C(C)(C)C21CCC1)C(=O)NS(=O)(=O)N1CCOCC1` [Compound 8, (5R,8S)-7-[(2S)-2-{[(2S)-2-({[(2S)-1-(2-fluoroethyl)piperidin-2-yl]carbonyl}amino)-3,3-dimethylbutanoyl]amino}-3,3-dimethylbutanoyl]-10,10-dimethyl-N-{(1R,2S)-1-[(morpholin-4-ylsulfonyl)carbamoyl]-2-vinylcyclopropyl}-7-azadispiro[3.0.4.1]decane-8-carboxamide]: 300 nM.
With `C=C[C@@H]1C[C@]1(NC(=O)C1C[C@@]2(CN1C(=O)[C@@H](NC(=O)c1cccc(C(=O)NC)c1)C(C)(C)C)C(C)(C)C21CCC1)C(=O)NS(=O)(=O)N1CCCC1` (stereo partly drawn) [Compound 88, N-[(1S)-1-{[(5R)-10,10-dimethyl-8-({(1R,2S)-1-[(pyrrolidin-1-ylsulfonyl)carbamoyl]-2-vinylcyclopropyl}carbamoyl)-7-azadispiro[3.0.4.1]dec-7-yl]carbonyl}-2,2-dimethylpropyl]-N′-methylisophthalamide], the IC50 was 500 nM.
`C=C[C@@H]1C[C@]1(NC(=O)[C@@H]1C[C@@]2(CN1C(=O)[C@@H](NC(=O)[C@@H](NC(=O)[C@@H]1CCCCN1C(C)C)C(C)(C)C)C(C)C)C(C)(C)C21CCC1)C(=O)NS(=O)(=O)N(CC)CC` [Compound 131, (5R,8S)-N-[(1R,2S)-1-{[(diethylamino)sulfonyl]carbamoyl}-2-vinylcyclopropyl]-7-[(2S)-2-{[(2S)-2-({[(2S)-1-isopropylpiperidin-2-yl]carbonyl}amino)-3,3-dimethylbutanoyl]amino}-3-methylbutanoyl]-10,10-dimethyl-7-azadispiro[3.0.4.1]decane-8-carboxamide]: the IC50 is 5.5 nM.
As for `C=C[C@@H]1C[C@]1(NC(=O)[C@@H]1C[C@@]2(CN1C(=O)[C@@H](NC(=O)[C@@H](NC(=O)[C@@H]1CCCCN1C(C)C)C1CCCCC1)C(C)(C)C)C(C)(C)C21CCC1)C(=O)NS(=O)(=O)N(CC)CC` [Compound 174, (5R,8S)-7-[(2S)-2-{[(2S)-2-cyclohexyl-2-({[(2S)-1-isopropylpiperidin-2-yl]carbonyl}amino)acetyl]amino}-3,3-dimethylbutanoyl]-N-[(1R,2S)-1-{[(diethylamino)sulfonyl]carbamoyl}-2-vinylcyclopropyl]-10,10-dimethyl-7-azadispiro[3.0.4.1]decane-8-carboxamide], the IC50 came out at 0.6 nM.
With `C=C[C@@H]1C[C@]1(NC(=O)[C@@H]1C[C@@]2(CN1C(=O)[C@@H](NC(=O)[C@@H](NC(=O)c1cnon1)C1CCCCC1)C(C)(C)C)C(C)(C)C21CCC1)C(=O)NS(=O)(=O)N1CCCC1` [Compound 201, (5R,8S)-7-[(2S)-2-({cyclohexyl[(1,2,5-oxadiazol-3-ylcarbonyl)amino]acetyl}amino)-3,3-dimethylbutanoyl]-10,10-dimethyl-N-{(1R,2S)-1-[(pyrrolidin-1-ylsulfonyl)carbamoyl]-2-vinylcyclopropyl}-7-azadispiro[3.0.4.1]decane-8-carboxamide], the IC50 is 35 nM.
